In patent publication US9365540B2, “Benzimidazole derivatives as MCH receptor antagonists” (Takeda Pharmaceutical Company Limited, priority 2012, dated 2016):

Target: T1, human MCH receptor 1 (MCHR1) (Homo sapiens, UniProt Q99705)
T1 construct: expressed in transfected cells; host or cells: CHO cell clone 57 (membrane fraction)
Assay: human MCH receptor 1 (MCHR1) competitive binding assay with [125I]-MCH(4-19)
Settings: test compound 0.1 μM, human MCHR1-expressing CHO cell membrane fraction, 0.1 µM
Procedure: Determination of human MCH receptor 1 (MCHR1) competitive inhibitory activity of test compound using binding assay
1. Preparation of Membrane Fraction
Using human MCHR1 (=SLC-1 receptor)-expressing CHO cell clone 57 described in WO01/82925, MCHR1-expressing CHO cell membrane fractions were prepared by the following method.
In phosphate buffered saline (pH 7.4) supplemented with 5 mM EDTA (ethylenediaminetetraacetic acid) were respectively suspended human MCHR1-expressing CHO cells (1×10^8 cells) and centrifuged. Homogenate buffer (10 mL, 10 mM NaHCO3, 5 mM EDTA, pH 7.5, 0.5 mM PMSF (phenylmethylsulfonyl fluoride), 20 mg/L leupeptin, 4 mg/L E-64, 1 mg/L pepstatin A) was added to the pellets of the cells and, using Polytron Homogenizer, the mixture was homogenated. The supernatant obtained after centrifugation at 400×g for 10 min was further centrifuged at 100,000×g for 1 hr to give precipitate of the membrane fraction. The precipitate were suspended in 2 mL of assay buffer [20 mM Tris-HCl (pH 7.5), 5 mM EDTA, 0.5 mM PMSF, 20 mg/L leupeptin, 4 mg/L E-64, 1 mg/L pepstatin A]. The membrane fractions were suspended in assay buffer to a protein concentration of 2 mg/mL, and after dispensing, preserved at −80° C. and used upon thawing each time when in use.
The MCHR1 ligand binding inhibitory activity of the test compound was determined as follows.
An MCHR1-expressing CHO cell membrane fraction (173 μL) diluted with an assay buffer was dispensed to a 96 well polypropylene plate (3363, Corning). DMSO solution (2 μL), 33 μM cold MCH(1-19) diluted with DMSO solution (2 μL), or a test compound solution diluted with DMSO solution to various concentrations (2 μL) was added, and lastly, [^125I]-MCH (4-19) diluted with assay buffer (hereinafter, sometimes to be referred to as “hot MCH”, 25 μL) was added to each well. The mixture was reacted with stirring at room temperature for 1 hr, and the plate was set on FilterMate Harvester (PerkinElmer). Using a treating glass filter plate (GF/C, PerkinElmer) with polyethyleneimine, which had been previously set, the plate was suction-filtered and washed three times with washing buffer (50 mM Tris-HCl buffer pH 7.5). The glass filter plate was dried, MicroScinti0 (PerkinElmer) was added at 25 μL/well, and the resulting radioactivity was measured by TopCount liquid scintillation counter (PerkinElmer). The binding inhibition rate of the test compound was calculated by the following formula. Binding inhibition (%)=100−(radioactivity upon addition of test compound and hot MCH−radioactivity upon addition of cold MCH and hot MCH solution)/(radioactivity upon addition of DMSO solution and hot MCH−radioactivity upon addition of cold MCH and hot MCH solution)×100
The binding inhibition rates (%) of test compounds (0.1 μM) as measured using human MCHR1-expressing CHO cell are shown in Table 2.

T1 sequence (Q99705 whole entry): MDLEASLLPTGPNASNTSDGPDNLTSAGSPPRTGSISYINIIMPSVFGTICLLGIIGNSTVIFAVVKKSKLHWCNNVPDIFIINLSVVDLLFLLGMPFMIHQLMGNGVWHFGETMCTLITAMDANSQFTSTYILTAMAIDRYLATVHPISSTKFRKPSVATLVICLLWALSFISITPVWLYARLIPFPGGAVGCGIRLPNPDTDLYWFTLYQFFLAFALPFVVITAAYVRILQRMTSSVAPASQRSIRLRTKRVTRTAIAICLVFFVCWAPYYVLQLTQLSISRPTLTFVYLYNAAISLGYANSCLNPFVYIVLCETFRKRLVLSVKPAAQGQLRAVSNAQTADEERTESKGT

| Compound | Binding inhibition rate % (0.1 μM) [%] |
| --- | --- |
| CCc1nc2ccc(-n3ccc(OCc4ccccc4)cc3=O)cc2n1C [Example 47, 4-(Benzyloxy)-1-(2-ethyl-1-methyl-1H-benzimidazol-6-yl)pyridin-2(1H)-one] | 62 |

Same assay, conditions: test compound 0.1 μM, human MCHR1-expressing CHO cell membrane fraction, read-out: Binding inhibition rate % (0.1 μM)

| Compound | inhibition at 0.1 µM [%] |
| --- | --- |
| Cc1c(C2CC2)nc2ccc(-n3ccc(OCc4ccc(Cl)s4)cc3=O)cn12 [Example 139, 4-((5-Chloro-2-thienyl)methoxy)-1-(2-cyclopropyl-3-methylimidazo[1,2-a]pyridin-6-yl)pyridin-2(1H)-one] | 88 |
| Cn1c([C@H]2C[C@H]2F)nc2ccc(-n3ccc(OCc4ccc(Cl)cc4)cc3=O)cc21 (racemic) [Example 136, 4-((4-Chlorobenzyl)oxy)-1-(2-((1RS,2RS)-2-fluorocyclopropyl)-1-methyl-1H-benzimidazol-6-yl)pyridin-2(1H)-one] | 69 |
| Cc1nc2ccc(-n3ccc(OCc4ccccc4)cc3=O)cn2c1C [Example 163, 4-(Benzyloxy)-1-(2,3-dimethylimidazo[1,2-a]pyridin-6-yl)pyridin-2(1H)-one] | 49 |
| CCC(=O)c1nc2ccc(-n3ccc(OCc4ccc(Cl)cc4)cc3=O)cc2n1C [Example 208, 4-((4-Chlorobenzyl)oxy)-1-(1-methyl-2-propanoyl-1H-benzimidazol-6-yl)pyridin-2(1H)-one] | 39 |
| Cn1c([C@@H]2CC[C@@H]2C(C)(C)O)nc2ccc(-n3ccc(OCc4ccc(Cl)cc4)cc3=O)cc21 (racemic) [Example 223, 4-((4-Chlorobenzyl)oxy)-1-(2-((1RS,2SR)-2-(2-hydroxypropan-2-yl)cyclobutyl)-1-methyl-1H-benzimidazol-6-yl)pyridin-2(1H)-one] | 60 |
| Cc1c(C2CC2)nc2ccc(-n3ccc(OCc4ccc(C(F)(F)F)cc4)cc3=O)cn12 [Example 5, 1-(2-Cyclopropyl-3-methylimidazo[1,2-a]pyridin-6-yl)-4-((4-(trifluoromethyl)benzyl)oxy)pyridin-2(1H)-one] | 58 |
| Cc1ccc(COc2ccn(-c3ccc4nc(C5CC5)n(C)c4c3)c(=O)c2)cc1 [Example 142, 1-(2-Cyclopropyl-1-methyl-1H-benzimidazol-6-yl)-4-((4-methylbenzyl)oxy)pyridin-2(1H)-one] | 69 |
| CCc1nc2ccc(-n3ccc(OCc4ccsc4F)cc3=O)cc2n1C [Example 234, 1-(2-Ethyl-1-methyl-1H-benzimidazol-6-yl)-4-((2-fluoro-3-thienyl)methoxy)pyridin-2(1H)-one] | 50 |
| CCc1nc2ccc(-n3ccc(OCc4ccccc4)cc3=O)cc2n1C [Example 210, 4-(Benzyloxy)-1-(2-ethyl-1-methyl-1H-benzimidazol-6-yl)pyridin-2(1H)-one] | 51 |
| Cc1c(C2CC2)nc2ccc(-n3ccc(OCc4ccc(Cl)cn4)cc3=O)cn12 [Example 32, 4-((5-Chloropyridin-2-yl)methoxy)-1-(2-cyclopropyl-3-methylimidazo[1,2-a]pyridin-6-yl)pyridin-2(1H)-one] | 83 |
| Cn1c(C2CC2)nc2ccc(-n3ccc(OCc4csc(F)c4)cc3=O)cc21 [Example 216, 1-(2-Cyclopropyl-1-methyl-1H-benzimidazol-6-yl)-4-((5-fluoro-3-thienyl)methoxy)pyridin-2(1H)-one] | 88 |
| Cn1c([C@@H]2C[C@@H]2C(C)(C)O)nc2ccc(-n3ccc(OCc4ccc(Cl)s4)cc3=O)cc21 (racemic) [Example 203, 4-((5-Chloro-2-thienyl)methoxy)-1-(2-((1RS,2SR)-2-(2-hydroxypropan-2-yl)cyclopropyl)-1-methyl-1H-benzimidazol-6-yl)pyridin-2(1H)-one] | 91 |
| Cn1c([C@@H]2C[C@@H]2C(C)(C)O)nc2ccc(-n3ccc(OCc4csc(Cl)c4)cc3=O)cc21 (racemic) [Example 215, 4-((5-Chloro-3-thienyl)methoxy)-1-(2-((1RS,2SR)-2-(2-hydroxypropan-2-yl)cyclopropyl)-1-methyl-1H-benzimidazol-6-yl)pyridin-2(1H)-one] | 92 |
| Cc1nc2ccc(-n3ccc(OCc4ccc(F)cc4)cc3=O)cn2c1C [Example 162, 1-(2,3-Dimethylimidazo[1,2-a]pyridin-6-yl)-4-((4-fluorobenzyl)oxy)pyridin-2(1H)-one] | 57 |
| Cn1c(C2CC2)nc2ccc(-n3ccc(OCc4cc(Br)c(Cl)s4)cc3=O)cc21 [Example 232, 4-((4-Bromo-5-chloro-2-thienyl)methoxy)-1-(2-cyclopropyl-1-methyl-1H-benzimidazol-6-yl)pyridin-2(1H)-one] | 73 |
| Cn1c([C@@H]2C[C@@H]2C(C)(C)O)nc2ccc(-n3ccc(OCc4ccc(F)c(Cl)c4)cc3=O)cc21 (racemic) [Example 222, 4-((3-Chloro-4-fluorobenzyl)oxy)-1-(2-((1RS,2SR)-2-(2-hydroxypropan-2-yl)cyclopropyl)-1-methyl-1H-benzimidazol-6-yl)pyridin-2(1H)-one] | 80 |
| COc1ccc(COc2ccn(-c3ccc4nc(C5CC5)n(C)c4c3)c(=O)c2)cc1 [Example 77, 1-(2-Cyclopropyl-1-methyl-1H-benzimidazol-6-yl)-4-((4-methoxybenzyl)oxy)pyridin-2(1H)-one] | 71 |
| CCc1nc2ccc(-n3ccc(OCc4ccc(Cl)s4)cc3=O)cc2n1C [Example 211, 4-((5-Chlorothiophen-2-yl)methoxy)-1-(2-ethyl-1-methyl-1H-benzimidazol-6-yl)pyridin-2(1H)-one] | 76 |
| Cc1csc(COc2ccn(-c3ccc4nc(C5CC5)n(C)c4c3)c(=O)c2)c1 [Example 56, 1-(2-Cyclopropyl-1-methyl-1H-benzimidazol-6-yl)-4-((4-methyl-2-thienyl)methoxy)pyridin-2(1H)-one] | 61 |
| Cn1c([C@@H]2C[C@@H]2C(C)(C)O)nc2ccc(-n3ccc(OCc4ccc(F)c(F)c4)cc3=O)cc21 (racemic) [Example 212, 4-((3,4-Difluorobenzyl)oxy)-1-(2-((1RS,2SR)-2-(2-hydroxypropan-2-yl)cyclopropyl)-1-methyl-1H-benzimidazol-6-yl)pyridin-2(1H)-one] | 80 |
| Cc1c(C2CC2)nc2ccc(-n3ccc(OCc4csc(C(F)F)c4)cc3=O)cn12 [Example 184, 1-(2-Cyclopropyl-3-methylimidazo[1,2-a]pyridin-6-yl)-4-((5-(difluoromethyl)-3-thienyl)methoxy)pyridin-2 (1H)-one] | 82 |
| Cn1c(C2CCC2)nc2ccc(-n3ccc(OCc4ccc(Cl)cc4)cc3=O)cc21 [Example 109, 4-((4-Chlorobenzyl)oxy)-1-(2-cyclobutyl-1-methyl-1H-benzimidazol-6-yl)pyridin-2(1H)-one] | 50 |
| CCc1nc2ccc(-n3ccc(OCc4csc(Cl)c4)cc3=O)cn2c1C [Example 172, 4-((5-Chlorothiophen-3-yl)methoxy)-1-(2-ethyl-3-methylimidazo[1,2-a]pyridin-6-yl)pyridin-2(1H)-one] | 72 |
| Cn1c([C@@H]2C[C@@H]2C(C)(C)O)nc2ccc(-n3ccc(OCc4ccc(Cl)c(F)c4)cc3=O)cc21 (racemic) [Example 220, 4-((4-Chloro-3-fluorobenzyl)oxy)-1-(2-((1RS,2SR)-2-(2-hydroxypropan-2-yl)cyclopropyl)-1-methyl-1H-benzimidazol-6-yl)pyridin-2(1H)-one] | 81 |
| Cn1c([C@@H]2C[C@@H]2CO)nc2ccc(-n3ccc(OCc4ccc(Cl)cc4)cc3=O)cc21 (racemic) [Example 149, 4-((4-Chlorobenzyl)oxy)-1-(2-((1RS,2SR)-2-(hydroxymethyl)cyclopropyl)-1-methyl-1H-benzimidazol-6-yl)pyridin-2(1H)-one] | 55 |
| CCc1ncoc1-c1nc2ccc(-n3ccc(OCc4ccc(F)cc4)cc3=O)cc2n1C [Example 201, 1-(2-(4-Ethyl-1,3-oxazol-5-yl)-1-methyl-1H-benzimidazol-6-yl)-4-((4-fluorobenzyl)oxy)pyridin-2(1H)-one] | 84 |
